The text below walks through data of article PMC3914206.

Holding throughout (type): binding
The target in test [1] is T1, panel of 442 kinases (Homo sapiens, UniProt Q14004).
T1 construct: purchased KINOMEscan
Particulars: Compound Concentration 10 µM. The text has this: (§1) We assessed the selectivity of members of this scaffold using the KINOMEscan methodology across a near comprehensive panel of 442 kinases [[18,27]].

The target in test [2] is T2, panel of 442 kinases (Homo sapiens, UniProt P53671).
T2 construct: purchased KINOMEscan
T2 sequence (P53671 whole entry): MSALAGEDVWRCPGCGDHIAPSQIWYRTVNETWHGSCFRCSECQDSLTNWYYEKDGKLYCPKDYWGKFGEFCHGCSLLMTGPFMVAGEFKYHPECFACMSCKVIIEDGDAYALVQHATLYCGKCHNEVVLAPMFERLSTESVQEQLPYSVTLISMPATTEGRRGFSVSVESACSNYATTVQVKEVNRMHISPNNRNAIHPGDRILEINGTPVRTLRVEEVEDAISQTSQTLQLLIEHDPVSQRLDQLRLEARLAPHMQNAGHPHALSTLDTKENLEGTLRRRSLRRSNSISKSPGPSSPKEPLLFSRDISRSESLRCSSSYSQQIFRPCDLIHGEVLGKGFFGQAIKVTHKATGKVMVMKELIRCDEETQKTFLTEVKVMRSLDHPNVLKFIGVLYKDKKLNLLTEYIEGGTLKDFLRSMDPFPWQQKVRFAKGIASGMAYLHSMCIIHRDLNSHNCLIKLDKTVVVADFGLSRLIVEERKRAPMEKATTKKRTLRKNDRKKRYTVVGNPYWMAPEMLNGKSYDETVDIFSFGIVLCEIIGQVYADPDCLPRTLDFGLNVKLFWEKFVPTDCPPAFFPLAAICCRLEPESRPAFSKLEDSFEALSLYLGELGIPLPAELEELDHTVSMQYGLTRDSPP
The settings on record: Compound Concentration 10 µM.
Source text: as §1

The target in test [3] is T3, panel of 442 kinases (Homo sapiens, UniProt Q9BXA7).
T3 construct: purchased KINOMEscan
T3 sequence (Q9BXA7 1-367): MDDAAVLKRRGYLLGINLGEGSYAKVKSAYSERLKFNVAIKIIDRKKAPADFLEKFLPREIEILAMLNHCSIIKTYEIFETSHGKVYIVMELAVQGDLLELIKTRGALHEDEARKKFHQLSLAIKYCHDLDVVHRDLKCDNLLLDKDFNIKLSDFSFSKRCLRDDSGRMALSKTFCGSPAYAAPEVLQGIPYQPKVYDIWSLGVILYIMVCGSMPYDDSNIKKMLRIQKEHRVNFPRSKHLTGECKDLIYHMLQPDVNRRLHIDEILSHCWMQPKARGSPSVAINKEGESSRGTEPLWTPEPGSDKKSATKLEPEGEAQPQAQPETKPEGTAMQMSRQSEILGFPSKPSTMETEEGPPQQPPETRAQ
The settings on record: kinase TSSK1B; compound concentration 10 µM.
Source text: as §1

T1 sequence (Q14004 whole entry): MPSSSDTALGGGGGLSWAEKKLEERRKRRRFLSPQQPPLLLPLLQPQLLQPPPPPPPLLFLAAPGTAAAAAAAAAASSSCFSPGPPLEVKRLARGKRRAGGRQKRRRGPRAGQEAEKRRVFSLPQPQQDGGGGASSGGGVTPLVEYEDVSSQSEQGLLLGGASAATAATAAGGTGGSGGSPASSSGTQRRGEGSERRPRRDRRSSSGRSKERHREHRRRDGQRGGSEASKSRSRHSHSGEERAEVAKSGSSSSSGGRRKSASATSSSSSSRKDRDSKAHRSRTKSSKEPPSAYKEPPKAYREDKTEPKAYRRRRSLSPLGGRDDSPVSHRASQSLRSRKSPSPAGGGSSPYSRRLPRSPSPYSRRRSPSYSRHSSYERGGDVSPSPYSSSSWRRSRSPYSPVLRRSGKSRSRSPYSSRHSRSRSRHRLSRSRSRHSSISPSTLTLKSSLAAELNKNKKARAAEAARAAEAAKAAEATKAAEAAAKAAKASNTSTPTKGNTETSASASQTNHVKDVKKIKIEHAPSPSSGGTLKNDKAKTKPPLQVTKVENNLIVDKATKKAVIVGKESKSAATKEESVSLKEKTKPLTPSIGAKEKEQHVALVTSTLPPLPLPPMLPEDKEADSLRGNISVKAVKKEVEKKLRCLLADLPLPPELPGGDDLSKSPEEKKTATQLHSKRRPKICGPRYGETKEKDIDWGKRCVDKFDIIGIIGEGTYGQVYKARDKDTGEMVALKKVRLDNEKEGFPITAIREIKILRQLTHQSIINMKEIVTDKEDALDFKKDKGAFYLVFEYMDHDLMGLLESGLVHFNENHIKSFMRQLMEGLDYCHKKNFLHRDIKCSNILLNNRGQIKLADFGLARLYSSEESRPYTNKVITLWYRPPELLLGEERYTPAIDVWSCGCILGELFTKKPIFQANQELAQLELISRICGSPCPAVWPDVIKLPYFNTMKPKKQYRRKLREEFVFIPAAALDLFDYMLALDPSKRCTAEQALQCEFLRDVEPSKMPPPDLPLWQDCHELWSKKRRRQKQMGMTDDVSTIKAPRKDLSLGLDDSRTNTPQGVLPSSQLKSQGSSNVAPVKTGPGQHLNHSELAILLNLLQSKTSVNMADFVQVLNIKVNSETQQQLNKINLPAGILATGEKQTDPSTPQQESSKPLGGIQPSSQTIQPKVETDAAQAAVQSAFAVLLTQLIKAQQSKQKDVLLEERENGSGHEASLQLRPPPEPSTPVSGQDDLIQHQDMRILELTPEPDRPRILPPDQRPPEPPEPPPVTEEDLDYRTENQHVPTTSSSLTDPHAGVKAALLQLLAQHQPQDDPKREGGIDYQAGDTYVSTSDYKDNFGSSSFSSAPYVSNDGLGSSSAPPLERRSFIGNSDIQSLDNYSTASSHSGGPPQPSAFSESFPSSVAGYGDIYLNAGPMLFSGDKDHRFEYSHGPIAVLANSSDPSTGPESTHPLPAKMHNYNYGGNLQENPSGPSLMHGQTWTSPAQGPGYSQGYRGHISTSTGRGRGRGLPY

As for `COc1cc(C(=O)N2CCC(N3CCN(C)CC3)CC2)ccc1Nc1ncc2c(n1)N(C1CCCC1)c1ccccc1C(=O)N2C` [Compound 25, 11-cyclopentyl-2-((2-methoxy-4-(4-(4-methylpiperazin-1-yl)piperidine-1-carbonyl)phenyl)amino)-5-methyl-5H-benzo[e]pyrimido[5,4-b][1,4]diazepin-6(11H)-one], at panel of 442 kinases [1], the “KINOMEscan: CDC2L5” value is 100. For the same molecule, the “KINOMEscan: LIMK2” value on panel of 442 kinases [2] was 100. Further, the “% Ctrl, TSSK1B” value on panel of 442 kinases [3] was found to be 90 % Ctrl.
As for `COc1cc(C(=O)N2CCC(N3CCN(C)CC3)CC2)ccc1Nc1ncc2c(n1)N1CCc3cccc(c31)C(=O)N2C` [Compound 24], at panel of 442 kinases [3], the “% Ctrl, TSSK1B” value is 61 % Ctrl.
With `COc1cc(C(=O)N2CCC(N3CCN(C)CC3)CC2)ccc1Nc1ncc2c(n1)N(C)c1ccccc1C(=O)N2C` [15 (LRRK2-IN-1)], the “KINOMEscan: CDC2L5” value on panel of 442 kinases [1] was determined as 100. The “KINOMEscan: LIMK2” value on panel of 442 kinases [2] came out at 100. Further, at panel of 442 kinases [3], the “% Ctrl, TSSK1B” value amounted to 60 % Ctrl.
For the molecule `CCOc1cc(C(=O)N2CCC(N3CCN(C)CC3)CC2)ccc1Nc1ncc2c(n1)N(C1CCCC1)c1ccccc1C(=O)N2C` [Compound 26], the “KINOMEscan: CDC2L5” value on panel of 442 kinases [1] is 100. Further, the “KINOMEscan: LIMK2” value on panel of 442 kinases [2] is listed as 100. Moreover, the “% Ctrl, TSSK1B” value on panel of 442 kinases [3] was found to be 100 % Ctrl.
